# Measured values from paper PMC11054132, “Neuroprotective Effects of Chemical Constituents of Leaves of Euonymus hamiltonianus Wall” (Plants, 2024).
# “Also recorded” adds a separate entry of the source.
# Legend:
# [1] = tested on: NO production in LPS-activated BV-2 microglial cells; experiment: NO production (Griess reaction) in LPS-stimulated BV-2 microglial cells; assay type: cell-based, mouse; conditions: for IC50: pretreated 1 h, 100 ng/mL LPS (footnote 24 h; text 12 h), means ± SDs (n = 3); for Inhibitory effect on NO production (in words): LPS-stimulated BV-2 microglial cells
# Method: The anti-inflammatory effects of the fourteen compounds (1–14) isolated from E. hamiltonianus were evaluated in activated BV-2 microglial cells by the production of NO and proinflammatory cytokines. […] […] The compounds were continuously assessed to determine whether they suppressed the expression of iNOS and COX-2 in LPS-stimulated BV-2 microglial cells. The cells were stimulated with LPS in the presence of these compounds at various concentrations, and the expression levels of iNOS and COX-2 were determined by Western blotting. […] Thus, compound 3 may be considered a potential anti-inflammatory agent.
# For the Aβ-Hela-APPsw model, Hela cells were stably transfected with an APP carrying the Swedish mutation (APPsw) using BioT (Bioland Scientific LLC, Paramount, CA, USA) according to the manufacturer’s instructions, which was provided by Prof. Tae-Wan Kim (Department of Pathology, Columbia University of Medical Center, New York, NY 10032, USA). APPsw-transfected HeLa cells were grown in DMEM supplemented with 10% fetal bovine serum (FBS; Thermo Fisher Scientific, Lafayette, CA, USA), 1% penicillin/streptomycin (Thermo Fisher Scientific, Lafayette, CA, USA), 260 μg/mL Zeocin, and 400 μg/mL G418. The cells were maintained at 37 °C under a humidified atmosphere of 5% CO2. The stock sample solution was dissolved in DMSO and kept at −20 °C and diluted to the final concentration in fresh medium before each experiment. […] The EZ-Cytox kit (DAEILLAB, Cheongwon, Republic of Korea) was applied to detect the cell viability, following the manufacturer’s instructions, and measurements were taken by a microplate reader (BIO-TEK® Dower-Wave; BioTek, Winooski, VT, USA) under absorbance at 450 nm. The results were presented as the percentage of MTT reduction, compared with the control group as 100%. For the LPS-induced microglia model, the BV-2 mouse microglia cell line was provided by Prof. Lee Sung Jung’s research team in the College of Medicine, Seoul National University, and was cultured in DMEM-F12 with 5% FBS and 1% penicillin/streptomycin at 37 °C under a humidified atmosphere containing 5% CO2. And the cell viability assay was performed using the Aβ-Hela-APPsw model.
# […] The media were collected and centrifuged at 13,000 rpm for the removal of dead cells. The supernatants were collected and mixed with an equal volume (50 μL) of Griess reagents (1% sulfanilamide and N-(1-naphthyl) ethylenediamine dihydrochloride in 2.5% H3PO4) for 5 min at room temperature, and the Nitric Oxide concentration was measured at 540 nm using a microplate reader and compared with the sodium nitrite standard curve.
# [2] = Cytotoxicity (MTT assay) in BV-2 microglial cells; assay type: cell-based; conditions: mouse; BV-2 microglial cells, MTT assay; read-out: IC50 Value (µM) Cytotoxicity
# iNOS = experiment: Western blot of LPS-induced iNOS expression in BV-2 microglial cells; assay type: cell-based, mouse; conditions: LPS-stimulated BV-2 microglial cells, various concentrations (1.0, 2.0, 4.0 µM)
# Method: (§1) The anti-inflammatory effects of the fourteen compounds (1–14) isolated from E. hamiltonianus were evaluated in activated BV-2 microglial cells by the production of NO and proinflammatory cytokines. BV-2 microglial cells were stimulated with 0.1 µg/mL LPS for 12 h in the presence of the compounds at various concentrations, and the levels of NO in the culture supernatants were measured using Griess reactions. […] The compounds were continuously assessed to determine whether they suppressed the expression of iNOS and COX-2 in LPS-stimulated BV-2 microglial cells. The cells were stimulated with LPS in the presence of these compounds at various concentrations, and the expression levels of iNOS and COX-2 were determined by Western blotting. […] Thus, compound 3 may be considered a potential anti-inflammatory agent.
# The total protein samples (10 μg) were loaded in sodium dodecyl sulfate polyacrylamide gel electrophoresis (SDS–PAGE) gels with 10% acrylamide/bis and transferred to polyvinylidene difluoride membranes (Millipore, Burlington, MA, USA). Then, the membranes were blocked with 5% silky milk dissolved in TBST (Tris Buffered saline Tween) for 1 h under room temperature and incubated overnight at 4 °C with specific primary antibodies (1:1000). After being washed with TBST, the membranes were incubated with secondary HRP-conjugated IgG (1:2000) at room temperature for 1 h and visualized using enhanced chemiluminescence (ECL) reagents (Thermo Fisher Scientific, Lafayette, CA, USA). Densitometry analysis of the bands was performed with the fusion solo system (Vilber, Paris, France). The band densities were determined as the intensities of protein by TotalLab TL120 software v2009 (TotalLab, Newcastle, UK).
# COX-2 = experiment: Western blot of LPS-induced COX-2 expression in BV-2 microglial cells; assay type: cell-based, mouse; conditions: LPS-stimulated BV-2 microglial cells, various concentrations (1.0, 2.0, 4.0 µM)
# Method: as §1
# The total protein samples (10 μg) were loaded in sodium dodecyl sulfate polyacrylamide gel electrophoresis (SDS–PAGE) gels with 10% acrylamide/bis and transferred to polyvinylidene difluoride membranes (Millipore, Burlington, MA, USA). Then, the membranes were blocked with 5% silky milk dissolved in TBST (Tris Buffered saline Tween) for 1 h under room temperature and incubated overnight at 4 °C with specific primary antibodies (1:1000). […] The band densities were determined as the intensities of protein by TotalLab TL120 software v2009 (TotalLab, Newcastle, UK).
# [3] = Mus musculus, BV-2, BV-2 microglial cells
Structure (SMILES),IC50 ([1]; BV-2 microglial cells),Inhibitory effect on NO production (in words) [1],"IC50 [1, 3]",IC50 at 12 h [2],LPS-induced iNOS protein expression (in words) (iNOS),LPS-induced COX-2 protein expression (in words) (COX-2)
"O=c1c(O[C@@H]2O[C@H](CO)[C@H](O)[C@H](O)[C@H]2O)c(-c2ccc(O)c(O)c2)oc2cc(O)cc(O)c12 [Compound 3, quercetin-3-O-β-D-galactopyranoside]",16.3 ± 2.94 µM,effectively downregulated; also recorded: good inhibitory effects,14.4 µM,> 100 µM,suppressed; also recorded: most potent inhibitory activity; also recorded: effectively downregulated,suppressed; also recorded: most potent inhibitory activity
"O=c1c(O[C@@H]2O[C@H](CO)[C@@H](O)[C@H](O)[C@H]2O)c(-c2ccc(O)c(O)c2)oc2cc(O[C@@H]3O[C@H](CO)[C@@H](O)[C@H](O)[C@H]3O)cc(O)c12 [Compound 4, quercetin-3,7-di-O-β-D-glucopyranoside]",–,effectively downregulated; also recorded: good inhibitory effects,14.4 ± 8.68 µM,> 100 µM,suppressed; also recorded: effectively downregulated,suppressed
